1 compound from publication PMC7750480, “A hybrid approach reveals the allosteric regulation of GTP cyclohydrolase I” (Proceedings of the National Academy of Sciences of the …, 2020) can be followed below.

Numbering of substitutions follows the chain as printed.

Common to all, as to format: binding
One assay addresses T1, GCH1 F122A mutant (Homo sapiens, UniProt P30793, F122A).
T1 construct: The hGCH1 (42-250, N-terminal 6xHis Tag and TEV cleavage site); 6xHis (N); TEV cleavage site (N); made in house; host or cells: E. coli BL21(DE3)
T1 sequence (P30793 42-250 F122A): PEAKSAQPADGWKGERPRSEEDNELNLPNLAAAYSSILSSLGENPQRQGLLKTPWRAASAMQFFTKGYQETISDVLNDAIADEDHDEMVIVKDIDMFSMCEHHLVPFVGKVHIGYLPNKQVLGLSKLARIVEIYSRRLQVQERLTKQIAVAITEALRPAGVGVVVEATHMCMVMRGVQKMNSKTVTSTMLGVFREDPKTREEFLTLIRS
The assay is described as follows: protein-detected NMR titration (1H,13C HMQC), F122A mutant. How it is done:
(§1) Finally, the F122A mutant was generated and characterized to check whether the structurally observed, F122-dependent closure of the active site plays a key role in GCH1 function. […] The fitted dissociation constant KD of GCH1 for the nonhydrolyzable GTP analog 7-deaza-GTP was determined by protein-detected NMR titrations. […] Therefore, the missing enzyme activity of the F122 mutant cannot be explained by reduced affinity to the substrate and must have other underlying causes.
(§2) Perdeuterated protein with selectively labeled protonated and ^13C-labeled alanine, isoleucine, leucine, and valine methyl groups {Ala^β-[^13CH3]; Ile^δ1-[^13CH3]; Leu^δ,Val^γ-[^12CD3/^13CH3]} was expressed as described in the literature ([64]). […] All spectra were recorded on a Bruker Avance III 800 MHz NMR spectrometer equipped with a cryogenic triple-resonance probe at 298 K. Fifty micromolars perdeuterated GCH1 monomer with selectively labeled methyl groups was dissolved in 1× PBS in D2O. The ^1H,^13C-HMQC spectra of the protein were recorded with increasing concentration of the nonhydrolyzable GTP analog 7-deaza-GTP up to a final concentration of 3.5 mM. Spectra were processed with Bruker Topspin 3.5 and analyzed using CcpNmr ([65]) analysis version 2. Chemical shift perturbation (CSP) was calculated using Eq. 1 and the binding curve was fitted using Eq. 2. […]

The target of assay [1] is T2, GCH1 (Homo sapiens, UniProt P30793).
T2 construct: The hGCH1 (42-250, N-terminal 6xHis Tag and TEV cleavage site); 6xHis (N); TEV cleavage site (N); made in house; host or cells: E. coli BL21(DE3)
T2 sequence (P30793 42-250): T1 sequence (P30793 42-250 F122A) with A81F
The assay can be described thus: protein-detected NMR titration (1H,13C HMQC), wild-type GCH1. How it is done: as §1, §2

Assay [2] concerns the target T2, GCH1. The assay can be described thus: STD-NMR titration of 7-deaza-GTP to GCH1 (initial slopes of build-up curves). An excerpt:
To shed more light onto the mechanism of BH4-induced inhibition of GCH1, we used saturation transfer difference (STD) NMR spectroscopy to study binding of the substrate analog 7-deaza-GTP to GCH1. STD-NMR can be used to determine the KD of ligands (feasible in the range between 10^−2 and 10^−6 M) and allows the making of qualitative statements about the change of ligand binding kinetics ([28]–[31]). STD-NMR experiments were based on a titration of 7-deaza-GTP to GCH1 in the presence or absence of BH4. We measured a series of STD build-up curves (i.e., STD effects at a constant ligand concentration but increasing saturation times) at each 7-deaza-GTP concentration for the protons H7 and H1′ of the substrate analog. From the concentration dependence of the initial build-up slopes, the dissociation constant as well as the maximum STD amplification for the monitored proton signal can be derived (Fig. 6 A and B).
Fig. 6. KD determination using initial slopes from STD-NMR build-up curves. (A) For each ligand concentration, a set of measurements was recorded applying different saturation times (tsat). To obtain STD-AFmax values and the saturation rate constants ksat from STD-NMR build-up curves, experimental STD-AF values were fit to a rising exponential: STD-AF = STD-AFmax (1−exp (−ksat tsat)). From the fitting parameters, initial build-up slopes (tsat = 0) were calculated: STD-AF0 = STD-AFmax ksat. These STD-AF0 values were plotted against the ligand concentration, yielding a binding isotherm from which KD can be derived by fitting the Langmuir binding model: STD-AF0 = Amax/(1+(KD/c)). Amax is a scaling factor representing the maximum STD amplification. Two different 7-deaza-GTP protons (H1′ and H7) were monitored in these experiments. (C) Assignment of relevant protons on structural formula of 7-deaza-GTP. TEXT PRINTED IN THE PICTURE: (B) H1': KD: 52 (5mM BH4); Amax: 732 (5mM BH4); KD: 326 (no BH4); Amax: 177 (no BH4) | (B) H7: KD: 157 (5mM BH4); Amax: 729 (5mM BH4); KD: 977 (no BH4); Amax: 400 (no BH4) DOUBTS OF THE COPYIST ABOUT THIS PICTURE: Panel B: the row labels H1' and H7 are monitored protons of one ligand (printed in panel A as 7da-GTP / 7-Deaza-GTP), not separate compounds; they are used as labels as printed / Panel B: no unit is printed for KD or Amax in the table
All NMR experiments were performed at 25 °C on a Bruker HD 600-MHz spectrometer equipped with a cryogenic QCI probe head. Deuterium oxide (D2O) NMR buffer solution containing 40 mM of a NaH2PO4 and Na2HPO4 mixture with 150 mM sodium chloride (NaCl) was adjusted to a pD of 7.4 (corrected). Suppression of broad protein resonances was achieved by a T1ρ filter ([60]), formed by a 50-ms spin lock pulse. STD-NMR spectra were acquired with WATERGATE water suppression using W5 hard pulse trains ([61]). Difference spectrum ligand signal intensities were divided by corresponding off-resonance spectrum signal intensities, resulting in relative STD intensity values. Multiplication by ligand excess factor yielded STD amplification factor (STD-AF) values ([28]). For selective protein signal saturation, a cascade of Gaussian-shaped pulses was applied. Series of measurements with different total saturation times (tsat) covering a range between 1.2 and 7.2 s were recorded for extraction of initial slopes from STD-AF build-up plots. An additional relaxation delay varying from 2.8 s to 0.4 s was inserted before the saturation cascade to keep constant the total time per scan. On-resonance irradiation was set to 0.16 parts per million (ppm), and off-resonance irradiation was set to 66 ppm. Depending on the ligand concentration, 64 to 1,024 scans were acquired for the STD experiments (32 to 512 scans each for on- and off-resonance). Considering the STD-AF to be directly proportional to the fraction of bound receptor gives rise to a hyperbolic dose–response curve (specific one-site binding model) when STD-AF values are measured with different ligand concentrations ([31]). […]

For `Nc1nc2c(ccn2C2OC(COP(=O)(O)OP(=O)(O)OP(=O)(O)O)C(O)C2O)c(=O)[nH]1` (stereo not shown) [7-deaza-GTP], the Kd was 669 µM on GCH1 F122A mutant; 798 µM on GCH1 [1]; 52 µM on GCH1 [2] (KD (STD-NMR, initial slopes), proton H1', 5mM BH4); 326 µM at GCH1 [2] (KD (STD-NMR, initial slopes), proton H1', no BH4); 157 µM on GCH1 [2] (KD (STD-NMR, initial slopes), proton H7, 5mM BH4); 977 µM at GCH1 [2] (KD (STD-NMR, initial slopes), proton H7, no BH4). For the same compound, the Kd at GCH1 [2] (KD, BH4-bound inhibited hGCH1) was about 100 µM; on GCH1 [2] (KD, free, active hGCH1), about 600 µM. Also, on GCH1 [2] (BH4-inhibited GCH1 compared to the uninhibited enzyme), the “increase of maximum STD amplification (Amax), factor” value is on record as “about 3”. Further, the “factor of tighter binding to the allosterically inhibited GCH1” value at GCH1 [2] (BH4-inhibited vs uninhibited GCH1) is given as about 6.
